Patent US20080009418A1, “Selective Inhibitors” (Alchemia LTD., priority 2004, published 2008)

Assays:
Human μ-opioid (MOP) = molecular target: T1, Human μ-opioid (MOP) (Homo sapiens, UniProt P35372); assay: Radioligand binding, human μ-opioid (MOP) membranes, FlashPlate, [3H]-Naloxone; details: compound at 10 μM, [3H]-Naloxone
T1 construct: purchased Perkin Elmer Biosignal
Outline: (§1)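 Cloned human receptor membranes were coated onto FlashPlate wells and incubated with radioligand and compound (added from a 0.5 mM DMSO daughter plate) for 1 hour at room temperature in the dark. Scintillation counting gave percent inhibition, with DMSO defining total and reference ligand defining non-specific binding.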

Human opioid (ORL1) = molecular target: T2, Human opioid (ORL1) (Homo sapiens, UniProt P41146); assay: Radioligand binding, human opioid ORL1 membranes, FlashPlate, [125I]-Nociceptin; details: compound at 10 μM, [125I]-Nociceptin
T2 construct: purchased Perkin Elmer Biosignal
T2 sequence (P41146 whole entry): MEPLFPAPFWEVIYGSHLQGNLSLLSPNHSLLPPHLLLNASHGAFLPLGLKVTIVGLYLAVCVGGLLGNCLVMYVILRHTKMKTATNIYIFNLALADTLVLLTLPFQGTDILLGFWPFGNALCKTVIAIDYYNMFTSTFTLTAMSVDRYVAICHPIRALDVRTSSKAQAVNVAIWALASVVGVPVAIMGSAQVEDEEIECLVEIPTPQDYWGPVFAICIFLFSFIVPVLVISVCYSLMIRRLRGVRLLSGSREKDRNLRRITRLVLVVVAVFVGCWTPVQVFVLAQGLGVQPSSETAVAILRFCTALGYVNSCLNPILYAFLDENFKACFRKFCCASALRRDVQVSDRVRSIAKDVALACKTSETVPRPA
Outline: as §1

[1] = molecular target: T3, Human neuropeptide Y (NPY-Y1) (Homo sapiens, UniProt P25929); assay: Radioligand binding, human neuropeptide Y NPY-Y1 membranes, FlashPlate, [125I]-PYY; details: compound at 10 μM, [125I]-PYY
T3 construct: purchased Perkin Elmer Biosignal
T3 sequence (P25929 1-384): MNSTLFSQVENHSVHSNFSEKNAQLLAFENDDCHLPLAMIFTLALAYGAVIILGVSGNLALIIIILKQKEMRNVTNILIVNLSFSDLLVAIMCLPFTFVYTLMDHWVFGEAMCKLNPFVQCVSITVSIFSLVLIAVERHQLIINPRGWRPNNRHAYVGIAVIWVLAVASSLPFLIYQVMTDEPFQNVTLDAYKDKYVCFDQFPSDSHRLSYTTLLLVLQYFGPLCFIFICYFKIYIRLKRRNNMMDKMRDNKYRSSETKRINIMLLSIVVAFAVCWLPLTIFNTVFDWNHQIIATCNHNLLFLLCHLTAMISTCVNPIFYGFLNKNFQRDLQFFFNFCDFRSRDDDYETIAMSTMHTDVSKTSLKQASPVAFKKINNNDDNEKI
Outline: as §1

Human Melanocortin (MC4) = molecular target: T4, Human Melanocortin (MC4) (Homo sapiens, UniProt P32245); assay: Radioligand binding, human melanocortin MC4 membranes, FlashPlate, [125I]-NDP-αMSH; details: compound at 10 μM, [125I]-NDP-αMSH
T4 construct: purchased Perkin Elmer Biosignal
T4 sequence (P32245 whole entry): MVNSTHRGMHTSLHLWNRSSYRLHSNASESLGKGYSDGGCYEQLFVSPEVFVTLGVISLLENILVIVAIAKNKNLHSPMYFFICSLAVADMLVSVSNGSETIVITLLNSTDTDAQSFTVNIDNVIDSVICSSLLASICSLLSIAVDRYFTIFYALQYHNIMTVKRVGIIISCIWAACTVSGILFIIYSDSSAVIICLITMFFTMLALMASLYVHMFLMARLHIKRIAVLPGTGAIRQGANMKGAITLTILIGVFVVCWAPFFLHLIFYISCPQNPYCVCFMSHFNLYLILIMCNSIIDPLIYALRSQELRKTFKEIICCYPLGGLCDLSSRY
Outline: as §1

[2] = molecular target: T5, Human melanin-concentrating hormone (MCH1) (Homo sapiens, UniProt Q99705); assay: Radioligand binding, human melanin-concentrating hormone MCH1 membranes, FlashPlate, [125I]-S36057; details: compound at 10 μM; for A6: inhibition of radioligand binding, human melanin-concentrating hormone (MCH1): [125I]-S36057
T5 construct: purchased Perkin Elmer Biosignal
T5 sequence (Q99705 whole entry): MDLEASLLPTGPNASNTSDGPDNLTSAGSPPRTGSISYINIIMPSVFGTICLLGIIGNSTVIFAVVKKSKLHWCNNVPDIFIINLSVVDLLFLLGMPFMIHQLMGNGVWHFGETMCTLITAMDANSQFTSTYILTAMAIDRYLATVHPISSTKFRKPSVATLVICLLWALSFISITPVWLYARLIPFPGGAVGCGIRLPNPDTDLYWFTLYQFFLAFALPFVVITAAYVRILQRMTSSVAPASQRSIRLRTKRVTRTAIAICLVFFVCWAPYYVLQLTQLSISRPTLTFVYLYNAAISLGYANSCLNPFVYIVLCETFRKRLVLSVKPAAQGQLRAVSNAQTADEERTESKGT
Outline: as §1

Mouse urotensin (mUR2) = molecular target: T6, Mouse urotensin (mUR2) (Mus musculus, UniProt Q8VIH9); assay: Radioligand binding, mouse urotensin mUR2 membranes, FlashPlate, [125I]-Urotensin II; details: compound at 10 μM, [125I]-Urotensin II
T6 construct: purchased Perkin Elmer Biosignal
T6 sequence (Q8VIH9 1-385): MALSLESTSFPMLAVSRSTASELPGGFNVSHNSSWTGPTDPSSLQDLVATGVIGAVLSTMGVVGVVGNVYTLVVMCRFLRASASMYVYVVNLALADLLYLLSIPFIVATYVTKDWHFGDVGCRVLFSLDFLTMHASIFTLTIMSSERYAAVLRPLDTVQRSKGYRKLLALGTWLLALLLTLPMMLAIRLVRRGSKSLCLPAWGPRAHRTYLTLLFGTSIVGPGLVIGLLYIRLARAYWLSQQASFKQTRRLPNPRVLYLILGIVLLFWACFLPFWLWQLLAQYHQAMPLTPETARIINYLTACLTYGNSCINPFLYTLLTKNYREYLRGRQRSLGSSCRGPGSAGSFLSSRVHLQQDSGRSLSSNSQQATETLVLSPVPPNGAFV
Outline: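 Cloned mouse urotensin (mUR2) receptor membranes from Perkin Elmer Biosignal were immobilized in FlashPlate microplates using a proprietary coating. Each well got 19.5 μl buffer, then 0.5 μl of DMSO, reference ligand, or compound. Adding 5 μl of [125I]-Urotensin II, diluted to 5× final concentration in binding buffer, started binding. Plates were sealed with TopSeal-A and incubated 1 hour at room temperature in the dark. Wells were counted for 30 seconds each on a TopCount after a 60-second delay, and percentage inhibition was calculated.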

Human κ-Opioid (KOP) = molecular target: T7, Human κ-Opioid (KOP) (Homo sapiens, UniProt P41145); assay: Radioligand binding, human κ-opioid (KOP) membranes, filtration, [3H]-Diprenorphine; details: compound at 10 μM, [3H]-Diprenorphine
T7 construct: purchased Perkin Elmer Biosignal
T7 sequence (P41145 whole entry): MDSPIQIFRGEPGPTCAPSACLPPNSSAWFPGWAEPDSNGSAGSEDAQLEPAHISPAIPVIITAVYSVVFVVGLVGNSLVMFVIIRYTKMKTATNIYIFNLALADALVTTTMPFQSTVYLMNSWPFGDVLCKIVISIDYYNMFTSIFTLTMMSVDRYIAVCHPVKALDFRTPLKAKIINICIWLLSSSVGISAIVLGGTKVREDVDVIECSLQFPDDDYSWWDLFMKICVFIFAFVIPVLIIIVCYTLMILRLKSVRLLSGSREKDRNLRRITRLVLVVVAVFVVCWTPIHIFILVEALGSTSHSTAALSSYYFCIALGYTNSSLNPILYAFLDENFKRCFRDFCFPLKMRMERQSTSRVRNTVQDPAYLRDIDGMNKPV
Outline: (§2)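 Percent inhibition of radioligand binding measured on recombinant human membranes: NK1 with [125I]-Substance P, KOP with [3H]-Diprenorphine. Incubation 1 h at room temperature, then harvest onto 0.3% PEI-soaked filters, cold Tris-HCl pH 7.4 washes and scintillation counting; non-specific binding from reference ligand wells.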

Human Melanocortin (MC3) = molecular target: T8, Human Melanocortin (MC3) (Homo sapiens, UniProt P41968); assay: Radioligand binding, human melanocortin MC3 membranes, FlashPlate, [125I]-NDP-αMSH; details: compound at 10 μM, [125I]-NDP-αMSH
T8 construct: purchased Perkin Elmer Biosignal
T8 sequence (P41968 whole entry): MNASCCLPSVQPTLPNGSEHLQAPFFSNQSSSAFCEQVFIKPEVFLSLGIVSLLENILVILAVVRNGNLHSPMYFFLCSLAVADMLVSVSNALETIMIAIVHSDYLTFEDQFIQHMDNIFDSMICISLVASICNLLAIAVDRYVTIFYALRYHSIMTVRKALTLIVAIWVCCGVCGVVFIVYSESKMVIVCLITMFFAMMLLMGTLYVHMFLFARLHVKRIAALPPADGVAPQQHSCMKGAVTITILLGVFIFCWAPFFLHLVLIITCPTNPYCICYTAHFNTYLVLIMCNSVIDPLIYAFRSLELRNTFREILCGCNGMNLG
Outline: as §1

Human melanocortin (MC5) = molecular target: T9, Human melanocortin (MC5) (Homo sapiens, UniProt P33032); assay: Radioligand binding, human melanocortin MC5 membranes, FlashPlate, [125I]-NDP-αMSH; details: compound at 10 μM, [125I]-NDP-αMSH
T9 construct: purchased Perkin Elmer Biosignal
T9 sequence (P33032 whole entry): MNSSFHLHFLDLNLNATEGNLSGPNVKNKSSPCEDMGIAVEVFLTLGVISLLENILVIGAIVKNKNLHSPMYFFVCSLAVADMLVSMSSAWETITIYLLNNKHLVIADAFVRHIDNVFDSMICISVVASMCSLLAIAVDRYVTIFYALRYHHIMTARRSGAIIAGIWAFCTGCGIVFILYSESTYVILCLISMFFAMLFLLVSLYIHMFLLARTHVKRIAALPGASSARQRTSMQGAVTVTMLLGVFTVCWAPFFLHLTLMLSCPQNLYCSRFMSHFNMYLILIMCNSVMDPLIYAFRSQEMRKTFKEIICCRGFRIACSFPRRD
Outline: as §1

Human neurokinin (NK1) = molecular target: T10, Human neurokinin (NK1) (Homo sapiens, UniProt P25103); assay: Radioligand binding, human neurokinin NK1 membranes, filtration, [125I]-Substance P; details: compound at 10 μM, [125I]-Substance P
T10 construct: purchased Perkin Elmer Biosignal
T10 sequence (P25103 whole entry): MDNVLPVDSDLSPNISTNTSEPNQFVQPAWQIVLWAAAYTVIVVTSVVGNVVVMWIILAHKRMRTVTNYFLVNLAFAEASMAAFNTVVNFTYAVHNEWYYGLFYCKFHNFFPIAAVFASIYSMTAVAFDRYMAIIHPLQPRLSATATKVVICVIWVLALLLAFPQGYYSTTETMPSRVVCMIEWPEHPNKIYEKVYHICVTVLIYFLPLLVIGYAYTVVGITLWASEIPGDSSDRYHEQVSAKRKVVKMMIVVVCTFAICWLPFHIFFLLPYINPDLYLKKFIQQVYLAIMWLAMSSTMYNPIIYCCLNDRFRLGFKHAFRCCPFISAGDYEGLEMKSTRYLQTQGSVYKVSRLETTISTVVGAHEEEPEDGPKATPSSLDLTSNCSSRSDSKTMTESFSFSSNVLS
Outline: as §2

Human δ-opioid (DOP) = molecular target: T11, Human δ-opioid (DOP) (Homo sapiens, UniProt P41143); assay: Radioligand binding, human δ-opioid (DOP) membranes, FlashPlate, [3H]-Bremazocine; details: compound at 10 μM, [3H]-Bremazocine
T11 construct: purchased Perkin Elmer Biosignal
T11 sequence (P41143 whole entry): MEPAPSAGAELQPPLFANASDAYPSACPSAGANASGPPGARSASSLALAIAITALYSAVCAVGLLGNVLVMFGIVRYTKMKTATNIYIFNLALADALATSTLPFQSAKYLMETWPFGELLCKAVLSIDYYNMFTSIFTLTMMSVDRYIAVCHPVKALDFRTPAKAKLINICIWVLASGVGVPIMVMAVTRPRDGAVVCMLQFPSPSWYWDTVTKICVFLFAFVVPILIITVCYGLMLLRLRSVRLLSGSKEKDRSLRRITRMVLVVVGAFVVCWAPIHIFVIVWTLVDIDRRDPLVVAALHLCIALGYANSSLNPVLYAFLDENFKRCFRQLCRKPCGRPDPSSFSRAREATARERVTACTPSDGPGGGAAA
Outline: as §1

T1 sequence (P35372 whole entry): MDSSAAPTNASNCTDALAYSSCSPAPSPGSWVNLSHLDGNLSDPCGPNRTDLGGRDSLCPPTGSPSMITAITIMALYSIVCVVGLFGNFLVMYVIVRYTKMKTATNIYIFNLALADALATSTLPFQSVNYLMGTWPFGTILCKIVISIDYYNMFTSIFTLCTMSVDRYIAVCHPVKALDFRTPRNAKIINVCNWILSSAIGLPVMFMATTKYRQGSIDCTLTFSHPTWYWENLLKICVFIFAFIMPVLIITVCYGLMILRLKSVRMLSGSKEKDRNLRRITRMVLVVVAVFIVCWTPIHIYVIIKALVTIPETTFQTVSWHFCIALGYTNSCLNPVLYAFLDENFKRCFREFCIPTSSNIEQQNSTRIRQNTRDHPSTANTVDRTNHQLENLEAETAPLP

Row | Structure (SMILES) | A7: inhibition of radioligand binding, human μ-opioid (MOP) (Human μ-opioid (MOP)) | A10: inhibition of radioligand binding, human opioid (ORL1) (Human opioid (ORL1)) | A9: inhibition of radioligand binding, human neuropeptide Y (NPY-Y1) [1] | A4: inhibition of radioligand binding, human melanocortin (MC4) (Human Melanocortin (MC4)) | A6: inhibition of radioligand binding, human melanin-concentrating hormone (MCH1) [2] | A11: inhibition of radioligand binding, mouse urotensin (mUR2) (Mouse urotensin (mUR2)) | A2: inhibition of radioligand binding, human κ-opioid (KOP) (Human κ-Opioid (KOP)) | A3: inhibition of radioligand binding, human melanocortin (MC3) (Human Melanocortin (MC3)) | A5: inhibition of radioligand binding, human melanocortin (MC5) (Human melanocortin (MC5)) | A8: inhibition of radioligand binding, human neurokinin (NK1) (Human neurokinin (NK1)) | A1: inhibition of radioligand binding, human δ-opioid (DOP) (Human δ-opioid (DOP)) | other results
1 | CSC1OC(COCc2ccc(Cl)cc2)C(O)C(OCc2ccc3ccccc3c2)C1NC(=O)CCNC(=N)N (stereo not drawn) [compound 309] | − (“−” indicates less than 50% inhibition at 10 μM) | − (“−” indicates less than 50% inhibition at 10 μM) | − (“−” indicates less than 50% inhibition at 10 μM) | − (“−” indicates less than 50% inhibition at 10 μM) | − (“−” indicates less than 50% inhibition at 10 μM) | − (“−” indicates less than 50% inhibition at 10 μM) | − (“−” indicates less than 50% inhibition at 10 μM) | − (“−” indicates less than 50% inhibition at 10 μM) | + (“+” indicates greater than 50% inhibition at 10 μM) | + (“+” indicates greater than 50% inhibition at 10 μM) | − (“−” indicates less than 50% inhibition at 10 μM) | –
2 | COC1C(O)C(COCc2ccc3ccccc3c2)OC(OCc2ccc(Cl)cc2)C1NC(=O)C1CCN(C(=N)N)CC1 (stereo not drawn) [compound 349] | − (“−” indicates less than 50% inhibition at 10 μM) | − (“−” indicates less than 50% inhibition at 10 μM) | − (“−” indicates less than 50% inhibition at 10 μM) | − (“−” indicates less than 50% inhibition at 10 μM) | − (“−” indicates less than 50% inhibition at 10 μM) | − (“−” indicates less than 50% inhibition at 10 μM) | − (“−” indicates less than 50% inhibition at 10 μM) | − (“−” indicates less than 50% inhibition at 10 μM) | + (“+” indicates greater than 50% inhibition at 10 μM) | + (“+” indicates greater than 50% inhibition at 10 μM) | − (“−” indicates less than 50% inhibition at 10 μM) | –
3 | CSC1OC(COCc2ccc(Cl)cc2)C(O)C(OCc2ccc3ccccc3c2)C1NC(=O)CCCN (stereo not drawn) [compound 310] | − (“−” indicates less than 50% inhibition at 10 μM) | − (“−” indicates less than 50% inhibition at 10 μM) | − (“−” indicates less than 50% inhibition at 10 μM) | − (“−” indicates less than 50% inhibition at 10 μM) | − (“−” indicates less than 50% inhibition at 10 μM) | − (“−” indicates less than 50% inhibition at 10 μM) | − (“−” indicates less than 50% inhibition at 10 μM) | − (“−” indicates less than 50% inhibition at 10 μM) | − (“−” indicates less than 50% inhibition at 10 μM) | + (“+” indicates greater than 50% inhibition at 10 μM) | − (“−” indicates less than 50% inhibition at 10 μM) | –
4 | CSC1OC(COCc2ccc(Cl)cc2)C(O)C(OCc2ccc3ccccc3c2)C1NC(=O)CNC(=N)N (stereo not drawn) [compound 307] | − (“−” indicates less than 50% inhibition at 10 μM) | − (“−” indicates less than 50% inhibition at 10 μM) | − (“−” indicates less than 50% inhibition at 10 μM) | + (“+” indicates greater than 50% inhibition at 10 μM) | − (“−” indicates less than 50% inhibition at 10 μM) | − (“−” indicates less than 50% inhibition at 10 μM) | − (“−” indicates less than 50% inhibition at 10 μM) | + (“+” indicates greater than 50% inhibition at 10 μM) | + (“+” indicates greater than 50% inhibition at 10 μM) | + (“+” indicates greater than 50% inhibition at 10 μM) | − (“−” indicates less than 50% inhibition at 10 μM) | –
5 | CSC1OC(COCc2ccc3ccccc3c2)C(O)C(OCc2ccc3ccccc3c2)C1NC(=O)CNC(=N)N (stereo not drawn) [compound 317] | − (“−” indicates less than 50% inhibition at 10 μM) | − (“−” indicates less than 50% inhibition at 10 μM) | − (“−” indicates less than 50% inhibition at 10 μM) | − (“−” indicates less than 50% inhibition at 10 μM) | − (“−” indicates less than 50% inhibition at 10 μM) | − (“−” indicates less than 50% inhibition at 10 μM) | − (“−” indicates less than 50% inhibition at 10 μM) | − (“−” indicates less than 50% inhibition at 10 μM) | + (“+” indicates greater than 50% inhibition at 10 μM) | + (“+” indicates greater than 50% inhibition at 10 μM) | − (“−” indicates less than 50% inhibition at 10 μM) | –
6 | COCC1OC(OCc2ccc3ccccc3c2)C(NC(=O)CCN)C(OCc2ccc(-c3ccccc3)cc2)C1O (stereo not drawn) [compound 243] | – | – | – | – | – | – | – | – | – | – | – | A7: inhibition of radioligand binding (Human μ-opioid (MOP); FlashPlate): − (“−” indicates less than 50% inhibition at 10 μM); A10: inhibition of radioligand binding (Human opioid (ORL1); FlashPlate): − (“−” indicates less than 50% inhibition at 10 μM); A9: inhibition of radioligand binding ([1]; FlashPlate): − (“−” indicates less than 50% inhibition at 10 μM); A4: inhibition of radioligand binding (Human Melanocortin (MC4); FlashPlate): + (“+” indicates greater than 50% inhibition at 10 μM); A6: inhibition of radioligand binding ([2]; [125I]-S36057, FlashPlate): − (“−” indicates less than 50% inhibition at 10 μM); A11: inhibition of radioligand binding (Mouse urotensin (mUR2); FlashPlate): − (“−” indicates less than 50% inhibition at 10 μM); A2: inhibition of radioligand binding (Human κ-Opioid (KOP); filtration): − (“−” indicates less than 50% inhibition at 10 μM); A3: inhibition of radioligand binding (Human Melanocortin (MC3); FlashPlate): − (“−” indicates less than 50% inhibition at 10 μM); A5: inhibition of radioligand binding (Human melanocortin (MC5); FlashPlate): + (“+” indicates greater than 50% inhibition at 10 μM); A8: inhibition of radioligand binding (Human neurokinin (NK1); filtration): + (“+” indicates greater than 50% inhibition at 10 μM); A1: inhibition of radioligand binding (Human δ-opioid (DOP); FlashPlate): − (“−” indicates less than 50% inhibition at 10 μM)
